What follows are molecules tested against MAPKAP-K2 (Homo sapiens, UniProt P49137) (assay: MAPKAP-K2 enzyme activity inhibition assay, Method B (33P-ATP, MultiScreen-PH plate)). Details: recombinant human MAPKAP-K2, 0.5% DMSO, 30 min room temperature, read-out: Inhibitory activity (MAPKAP-K2 IC50 class).
Type: biochemical
Description: The assay of inhibitory activity was performed according to Method A described below for Compound No. 1, 2, 3, 4, 20, 21, 22, 23, 24, 25, 26, 79, 80 and 81, and Method B described below for the other compounds.
A compound was dissolved in […] to make its concentration to 20 mmol/L, and the resultant solution was stored at −20° C. The stock solution was sequentially diluted with DMSO to prepare a solution having a 200-fold concentration of the required range. Further the solution was diluted with water to 1:20 to prepare a solution having a 10-fold concentration of the required range, and an aliquot of 5 μL of each solution was used for every reaction with 50 μL. During the continuous dilution of all compounds, the final DMSO concentration was maintained at 0.5%. Compounds were routinely tested at a final concentration ranging from 100 μmol/L to 0.03 μmol/L, but were sometimes tested at a lower concentration depending upon their activity.
The reaction was initiated by adding 25 μL of a peptide substrate solution [60 μmol/L substrate peptide, 20 μmol/L ATP, 50 mmol/L Tris buffer (pH 7.5), 0.1 mmol/L EGTA, 0.1% β-mercaptoetanol, 20 mmol/L magnesium acetate, and 0.1 μCi [γ-33P]ATP (specific radio activity: approximately 110 TBq/mmol)] to 5 μL of a 5% DMSO solution of the test compound and subsequently adding 20 μL of a MAPKAP-K2 enzyme solution [10 mU recombinant human MAPKAP-K2, 50 mmol/L Tris buffer (pH 7.5), 0.1 mmol/L EGTA, 0.1% β-mercaptoethanol, 0.1% BSA]. After performing the reaction for 30 min at room temperature, an equivalent volume of 200 mmol/L phosphoric acid solution was added to terminate the reaction. Subsequently, 90 μL of the reaction product was adsorbed on a MultiScreen-PH Plate (Millipore) and then rinsed with 100 mmol/L phosphoric acid solution. After drying the plate, 30 μL of MicroScint-O (Packard BioScience) was added, and further the count per minute was measured by a scintillation counter to determine the inhibitory activity. The substrate peptide was Lys-Lys-Leu-Asn-Arg-Tlr-Leu-Ser-Val-Ala.
• % Control=(X−B)/(Tot−B)×100 • % Inhibition=100—% Control • X=count per minute of a test compound well • B=count per minute of a well without containing enzyme • Tot=count per minute of a well with DMSO solvent only, without containing the test compound (MAPKAP-K2 inhibitory activity) • IC50 value=the compound concentration at 50% inhibition

MAPKAP-K2, sequence (P49137 whole entry): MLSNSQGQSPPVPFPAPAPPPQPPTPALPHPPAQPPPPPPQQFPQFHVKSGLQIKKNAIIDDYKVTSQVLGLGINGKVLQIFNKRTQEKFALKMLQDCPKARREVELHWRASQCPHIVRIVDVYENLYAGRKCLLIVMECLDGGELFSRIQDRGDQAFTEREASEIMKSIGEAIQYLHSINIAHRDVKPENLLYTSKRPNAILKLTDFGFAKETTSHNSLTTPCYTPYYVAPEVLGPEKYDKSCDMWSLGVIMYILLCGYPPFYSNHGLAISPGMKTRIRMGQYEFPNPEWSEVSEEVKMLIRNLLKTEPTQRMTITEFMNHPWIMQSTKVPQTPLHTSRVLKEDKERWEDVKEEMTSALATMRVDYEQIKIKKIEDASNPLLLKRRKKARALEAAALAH

Row | IC50 | SMILES
1 | 2 to 20 µM | CCC[C@@H]1CCNC[C@H]1Oc1nc2ccnn2c(Nc2ccc(OCC)cc2)c1C (racemic) [Compound No. 16, (dl)-(4-ethoxyphenyl)-[6-methyl-5-(trans-4-propylpiperidin-3-yloxy)pyrazolo[1,5-a]pyrimidin-7-yl]amine]
2 | 2 to 20 µM | CCOc1ccc(Nc2c(C)c(O[C@@H]3CNCC[C@H]3CC(N)=O)nc3ccnn23)cc1 (racemic) [Compound No. 82, (dl)-trans-2-{3-[7-(4-ethoxyphenyamino)-6-methylpyrazolo[1,5-a]pyrimidin-5-yloxyl-p]peridin-4-yl}acetamide]
3 | 2 to 20 µM | CCOc1ccc(Nc2c(C)c(OC3CCCNC3)nc3ccnn23)cc1 (stereo not drawn) [Compound No. 5, (dl)-(4-ethoxyphenyl)-[6-methyl-5-(pyperdin-3-yloxy)pyrazolo [1,5-a]pyrimidin-7-yl]-amine]
4 | ≤ 2 µM | CCOc1ccc(Nc2c(CCCO)c(O[C@H]3CC[C@H](N)CC3)nc3ccnn23)cc1 [Compound No. 88, 3-[5-(trans-4-aminocyclohexyloxy)-7-(4-ethoxyphenylamino)-pyrazolo [1,5-a]pyrimidin-6-yl]propan-1-ol]
5 | ≤ 2 µM | Cc1c(O[C@H]2CC[C@H](N)CC2)nc2ccnn2c1Nc1ccc(OCCOCc2ccccc2)cc1 [Compound No. 91, [5-(trans-4-aminocyclohexyloxy)-6-methylpyrazolo[1,5-a]pyrimidin-7-yl]-[4-(2-benzyloxyethoxy)phenyl]-amine]
6 | ≤ 2 µM | Cc1c(O[C@H]2CC[C@H](N)CC2)nc2ccnn2c1Nc1ccc(-c2cccc(N)c2)cc1 [Compound No. 93, N-4′-[5-(trans-4-aminocyclohexyloxy)-6-methylpyrazolo[1,5-a]pyrimidin-7-yl] biphenyl-3,4′-diamine]
7 | 2 to 20 µM | CCc1c(O[C@H]2CC[C@@H](N)CC2)nc2ccnn2c1Nc1ccccc1F [compound 9]
8 | 2 to 20 µM | CCc1c(O[C@H]2CC[C@@H](N)CC2)nc2ccnn2c1Nc1ccc(F)c(Cl)c1 [compound 10]
9 | 2 to 20 µM | C=CCc1c(O[C@H]2CC[C@@H](N)CC2)nc2ccnn2c1Nc1ccc(F)c(Cl)c1 [compound 12]
10 | 2 to 20 µM | CCOc1ccc(Nc2c(C)c(O[C@@H]3CC[C@@H](C)NC3)nc3ccnn23)cc1 [compound 17]
11 | 20 to 100 µM | CCOc1ccc(Nc2c(C)c(O[C@@H]3CC[C@H](C)NC3)nc3ccnn23)cc1 [compound 18]
12 | 20 to 100 µM | N[C@H]1CC[C@@H](Oc2cc(Nc3ccc(F)c(Cl)c3)n3ncc(I)c3n2)CC1 [compound 19]
13 | ≤ 2 µM | CCOc1ccc(Nc2c(C)c(O[C@@H]3CNCC[C@H]3CCO)nc3ccnn23)cc1 [compound 27]
14 | 20 to 100 µM | CCOc1ccc(Nc2c(C)c(OCCN)nc3ccnn23)cc1 [compound 28]
15 | 20 to 100 µM | CCOc1ccc(Nc2c(C)c(OCCCN)nc3ccnn23)cc1 [compound 29]
16 | 2 to 20 µM | CCOc1ccc(Nc2c(C)c(OCCCCN)nc3ccnn23)cc1 [compound 30]
17 | 20 to 100 µM | CCOc1ccc(Nc2c(C)c(OC(CN)c3ccccc3)nc3ccnn23)cc1 (stereo not shown) [compound 31]
18 | 20 to 100 µM | CCOc1ccc(Nc2c(C)c(OCC(C)N)nc3ccnn23)cc1 (stereo not shown) [compound 33]
19 | 20 to 100 µM | CCOc1ccc(Nc2c(C)c(OCC(N)CC)nc3ccnn23)cc1 (stereo not shown) [compound 36]
20 | 20 to 100 µM | CCOc1ccc(Nc2c(C)c(OCC3(N)CCCC3)nc3ccnn23)cc1 [compound 40]
21 | ≤ 2 µM | CCOc1ccc(Nc2c(C)c(O[C@H]3CNCC[C@@H]3CCO)nc3ccnn23)cc1 [compound 41]

Row | IC50 | SMILES
22 | 20 to 100 µM | CCOc1ccc(Nc2c(C)c(OC(CN)CN)nc3ccnn23)cc1 [compound 42]
23 | 20 to 100 µM | CCOc1ccc(Nc2c(C)c(OCC(N)(CO)CO)nc3ccnn23)cc1 [compound 43]
24 | 20 to 100 µM | CCOc1ccc(Nc2c(C)c(OC3CC(C)(C)CC(C)(CN)C3)nc3ccnn23)cc1 (stereo not shown) [compound 44]
25 | ≤ 2 µM | CSc1nc2ccc(Nc3c(C)c(OC4CCCNC4)nc4ccnn34)cc2s1 (stereo not shown) [compound 45]
26 | ≤ 2 µM | CSc1nc2ccc(Nc3c(C)c(O[C@H]4CC[C@@H](N)CC4)nc4ccnn34)cc2s1 [compound 46]
27 | 2 to 20 µM | COC(=O)c1ccc(Nc2c(C)c(OC3CCCNC3)nc3ccnn23)cc1 (stereo not shown) [compound 47]
28 | 2 to 20 µM | Cc1c(OC2CCCNC2)nc2ccnn2c1Nc1cccc(NS(C)(=O)=O)c1 (stereo not shown) [compound 48]
29 | 20 to 100 µM | Cc1c(OC2CCCNC2)nc2ccnn2c1Nc1cc(OC2CCCNC2)c(C#N)cc1F (stereo not shown) [compound 49]
30 | 20 to 100 µM | COc1cc(Nc2c(C)c(OC3CCCNC3)nc3ccnn23)cc(OC)c1 (stereo not shown) [compound 50]
31 | 2 to 20 µM | Cc1c(OC2CCCNC2)nc2ccnn2c1Nc1ccc(C(=O)c2ccccc2)cc1 (stereo not shown) [compound 51]
32 | 2 to 20 µM | Cc1c(OC2CCCNC2)nc2ccnn2c1Nc1ccc(Cc2ccccc2)cc1 (stereo not shown) [compound 52]
33 | 20 to 100 µM | Cc1c(OC2CCCNC2)nc2ccnn2c1Nc1ccc(C#N)c(C(F)(F)F)c1 (stereo not shown) [compound 53]
34 | 2 to 20 µM | Cc1c(OC2CCCNC2)nc2ccnn2c1Nc1ccc(SC(F)(F)F)cc1 (stereo not shown) [compound 54]
35 | 20 to 100 µM | COc1ccc(Cl)cc1Nc1c(C)c(OC2CCCNC2)nc2ccnn12 (stereo not shown) [compound 55]
36 | 2 to 20 µM | CCn1c2ccccc2c2cc(Nc3c(C)c(OC4CCCNC4)nc4ccnn34)ccc21 (stereo not shown) [compound 56]
37 | 2 to 20 µM | Cc1c(OC2CCCNC2)nc2ccnn2c1Nc1ccc(OC(F)(F)F)c(Cl)c1 (stereo not shown) [compound 57]
38 | 2 to 20 µM | CCOc1ccc(Nc2c(C)c(OC3CNCCC3CO)nc3ccnn23)cc1 (stereo not shown) [compound 58]
39 | ≤ 2 µM | COc1ccc(Nc2ccc(Nc3c(C)c(OC4CCCNC4)nc4ccnn34)cc2)cc1 (stereo not shown) [compound 59]
40 | ≤ 2 µM | Cc1ccc2nc(-c3ccc(Nc4c(C)c(OC5CCCNC5)nc5ccnn45)cc3)sc2c1 (stereo not shown) [compound 60]
41 | 2 to 20 µM | Cc1c(OC2CCCNC2)nc2ccnn2c1Nc1ccc(S(=O)(=O)N2CCOCC2)cc1 (stereo not shown) [compound 61]
42 | 2 to 20 µM | CC(=O)c1ccc(Nc2c(C)c(OC3CCCNC3)nc3ccnn23)cc1 (stereo not shown) [compound 62]

Row | IC50 | SMILES
43 | 20 to 100 µM | Cc1c(OC2CCCNC2)nc2ccnn2c1Nc1cccc2cnccc12 (stereo not shown) [compound 63]
44 | 2 to 20 µM | COc1ccc(Cl)cc1Nc1c(C)c(O[C@H]2CC[C@@H](N)CC2)nc2ccnn12 [compound 64]
45 | ≤ 2 µM | CCn1c2ccccc2c2cc(Nc3c(C)c(O[C@H]4CC[C@@H](N)CC4)nc4ccnn34)ccc21 [compound 65]
46 | ≤ 2 µM | COc1ccc(Nc2ccc(Nc3c(C)c(O[C@H]4CC[C@@H](N)CC4)nc4ccnn34)cc2)cc1 [compound 66]
47 | 20 to 100 µM | COC(=O)c1ccc(Nc2c(C)c(O[C@H]3CC[C@@H](N)CC3)nc3ccnn23)cc1 [compound 67]
48 | 2 to 20 µM | Cc1c(O[C@H]2CC[C@@H](N)CC2)nc2ccnn2c1Nc1cc(F)c(C#N)cc1F [compound 68]
49 | ≤ 2 µM | Cc1c(O[C@H]2CC[C@@H](N)CC2)nc2ccnn2c1Nc1ccc(C(=O)c2ccccc2)cc1 [compound 70]
50 | ≤ 2 µM | Cc1c(O[C@H]2CC[C@@H](N)CC2)nc2ccnn2c1Nc1ccc(C#N)c(C(F)(F)F)c1 [compound 72]
51 | ≤ 2 µM | Cc1c(O[C@H]2CC[C@@H](N)CC2)nc2ccnn2c1Nc1ccc(SC(F)(F)F)cc1 [compound 73]
52 | 2 to 20 µM | Cc1c(OC2CCCNC2)nc2ccnn2c1Nc1ccc2nc(SC(C)C)sc2c1 (stereo not shown) [compound 74]
53 | ≤ 2 µM | Cc1c(O[C@H]2CC[C@@H](N)CC2)nc2ccnn2c1Nc1ccc2nc(SC(C)C)sc2c1 [compound 75]
54 | ≤ 2 µM | Cc1c(O[C@H]2CC[C@@H](N)CC2)nc2ccnn2c1Nc1ccc(OCc2ccccc2)cc1 [compound 76]
55 | ≤ 2 µM | Cc1c(O[C@H]2CC[C@@H](N)CC2)nc2ccnn2c1Nc1ccc(I)cc1 [compound 77]
56 | ≤ 2 µM | Cc1c(O[C@H]2CC[C@@H](N)CC2)nc2ccnn2c1Nc1ccc(O)cc1 [compound 78]
57 | 2 to 20 µM | CCOc1ccc(Nc2c(C)c(O[C@@H]3CNCC[C@H]3CC(=O)NC)nc3ccnn23)cc1 [compound 83]
58 | 2 to 20 µM | CCOc1ccc(Nc2c(C)c(O[C@@H]3CNCC[C@H]3CC(=O)N(C)C)nc3ccnn23)cc1 [compound 84]
59 | 2 to 20 µM | CCOc1ccc(Nc2c(C)c(O[C@@H]3CNCC[C@H]3CC(=O)NCc3ccccc3)nc3ccnn23)cc1 [compound 85]
60 | 2 to 20 µM | CCOc1ccc(Nc2c(C)c(O[C@@H]3CNCC[C@H]3CC(=O)NC3CC3)nc3ccnn23)cc1 [compound 86]
61 | 20 to 100 µM | CCOc1ccc(Nc2c(C)c(O[C@@H]3CN(C(=O)OCc4ccccc4)CC[C@H]3CC(=O)NCc3ccccc3)nc3ccnn23)cc1 [compound 87]

From patent US7667036B2, “Pyrazolo[1,5-a]pyrimidine derivatives” (Teijin Pharma Limited, priority 2004, dated 2010)
